In patent US5668143A, “Heterocyclic benzenesulfonylimine derivatives as inhibitors of IL-1 action” (Merrell Pharmaceuticals Inc., priority 1996, dated 1997):

What was measured:
[1] = Interleukin-1-Beta-Induced Tumor Necrosis Factor Alpha Release by Human Macrophages; format: cell-based; conditions: Macrophage; TNF-α release; recombinant human IL-1β 20 ng/mL; compound 1 h before stimulation; supernatant at 24 h; ELISA
From the text: Interleukin-1-Beta-Induced Tumor Necrosis Factor Alpha Release by Human Macrophages
To determine the inhibitory concentrations for the test compounds against interleukin-1 beta (IL-1β)-induced tumor necrosis factor alpha (TNFα) release by human peripheral blood monocyte-derived macrophages. It should be understood that this is a test of the ability of the test compounds to modulate, i.e. inhibit, the activity of IL-1β by measuring the inhibition of IL-1β induced release of TNFα.
Source Human peripheral blood monocyte-derived macrophages:
Venous blood is collected form healthy volunteers in 10 mM sodium citrate (2 mL sterile sodium citrate for 40 mL blood). Mononuclear cells are isolated with the Leucoprep tubes (Becton Dickinson, product number 2752 or 2751) spun at 1500 g for fifteen minutes. Aliquots of 3×10^6 mononuclear cells are added to 24-well tissue culture plates (Corning) in RPMI-1640. After 1 hour incubation at 37° C., non-adherent cells are gently rinsed off. The adherent cells (macrophages) are given back fresh medium RPMI-1640, 1 mL/well.
Macrophage monolayer cultures are pretreated with compounds one hour prior to IL-1β (20 ng/mL, recombinant human IL-1β) stimulation. Compounds dissolved in 95% ethanol or DMSO would require additional monolayer cultures treated with 10 or 2.5 μl 95% ethanol or DMSO, respectively. Culture supernatants are collected 24 hours later and are tested for TNF-α using a commercial ELISA kit (Cistron).
The TNF-α concentration in the culture supernatant is calculated by a standard curve generated from a series of known concentrations. Potency of compound is reported in IC50 (μM).

[2] = system: interleukin-1 beta (IL-1β) release (production) by human peripheral blood monocyte-derived macrophages; test: Endotoxin-Induced Interleukin-1 Beta Release by Human Macrophages; format: cell-based; conditions: Macrophage, endotoxin 20 ng/mL (Salmonella typhimurium, Re-mutant), compound 1 h before stimulation, supernatant at 24 h, ELISA
Protocol: Endotoxin-Induced Interleukin-1 Beta Release by Human Macrophages The objective of this test is to determine the inhibitory concentrations for the test compounds against endotoxin-induced interleukin-1 beta (IL-1β) release (production) by human peripheral blood monocyte-derived macrophages. The source of the human peripheral blood monocyte-derived macrophages is as follows: Venous blood is collected from healthy volunteers in 10 mM sodium citrate (2 mL sterile sodium citrate for 40 mL blood). Mononuclear cells are isolated with the Leucoprep tubes (Becton Dickenson, product number 2752 or 2751) spun at 1500 g for 15 minutes. Aliquots of 3×10^6 mononuclear cells are added to 24-well tissue culture plates (Corning) in RPMI-1640. After one hour incubation at 37° C., non-adherent cells are gently rinsed off. The adherent cells (macrophages) are given back fresh medium RPMI-1640, 1 mL/well. Macrophage monolayer cultures are pretreated with compounds one hour prior to endotoxin (20 ng/mL, Salmonella typhimurium, Re-mutant, from Ribi Immuchem.) stimulation. Compounds dissolved in 95% ethanol or DMSO would require additional monolayer cultures treated with 10 or 2.5 μl 95% ethanol or DMSO, respectively. Culture supernatants are collected 24 hours later and are tested for IL-1β using a commercial ELISA kit (Cistron). The IL-1β concentration in the culture supernatant is calculated by a standard curve generated from a series of known concentrations. Potency of compound is reported in IC50 (μM).

| SMILES | IC50 [1] | IC50 [2] |
| --- | --- | --- |
| COC(=O)c1cc(=NS(=O)(=O)c2ccccc2)c2ccccc2o1 [4-[Benzenesulfonylimino]-4H-chromene-2-carboxylic acid, methyl ester] | 2000 nM | 3000 nM |
| CCCCOC(=O)c1cc(=NS(=O)(=O)c2ccccc2)c2c(Cl)cc(Cl)cc2[nH]1 [5,7-Dichloro-4-[benzenesulfonylimino]-1,4-dihydroquinoline-2-carboxylic acid, butyl ester] | 5000 nM | 3000 nM |
| CCOC(=O)c1cc(=NS(=O)(=O)c2ccccc2)c2c(Cl)cc(Cl)cc2[nH]1 [5,7-Dichloro-4-[benzenesulfonylimino]-1,4-dihydroquinoline-2-carboxylic acid, ethyl ester] | 3000 nM | 2000 nM |
| COC(=O)c1cc(=NS(=O)(=O)c2ccccc2)c2c(Cl)cc(Cl)cc2[nH]1 [5,7-Dichloro-4-[benzenesulfonylimino]-1,4-dihydroquinoline-2-carboxylic acid, methyl ester] | 3000 nM | 6000 nM |
| CNC(=O)c1cc(=NS(=O)(=O)c2ccccc2)c2c(Cl)cc(Cl)cc2[nH]1 [5,7-Dichloro-4-[benzenesulfonylimino]-1,4-dihydroquinoline-2-carboxylic acid-N-methylamide] | 4000 nM | 3000 nM |
